Results on nine molecules are retold here after patent US20030232790A1, “Dihydro-2h-napthalene-1-one inhibitors of ras farnesyl transferase” (priority 2002, published 2003).

Experiment [1] deals with T1, protein:farnesyl transferase (PFT), SF9 affinity purified rat FPT (Rattus norvegicus, UniProt Q02293+Q04631).
T1 construct: made in house
The experiment is described as follows: PFT (FPT) inhibitory activity, radiolabeled farnesyl pyrophosphate / biotinyl peptide streptavidin bead assay. It is filed as biochemical. How it is done:
The pharmaceutical utility of compounds of this invention was established by the following standard assay which measures inhibition of the enzyme protein:farnesyl transferase (PFT), also referred to as farnesyl protein transferase (FPT).
The PFT (or FPT) inhibitory activity of compounds of the present invention was assayed in HEPES buffer (pH 7.4) containing 5 mM potassium phosphate and 20 μM ZnCl2. The solution also contained 5 mM DTT (dithiothreitol), 5 mM MgCl2, and 0.1% PEG 8000. Assays were performed in 96 well plates (Wallec) and employed solutions composed of varying concentrations of a compound of the present invention in 10% DMSO (dimethylsulfoxide). Upon addition of both substrates, radiolabeled farnesyl pyrophosphate ([1^3H], specific activity 15-30 Ci/mmol, final concentration 134 nM) and (biotinyl)-Ahe-Thr-Lys-Cys-Val-Ile-Met ([3aS[3a alpha, 4 beta, 6a alpha]-hexahydro-2-oxo-1H-thieno[3,4-d]imidazole-5-pentanoic acid]-[7-aminoheptanoic acid]-Thr-Lys-Cys-Val-Ile-Met) (Ahe is 7-aminoheptanoic acid, Thr is threonine, Lys is lysine, Cys is cysteine, Val is valine, Ile is isoleucine, and Met is methionine) (final concentration 0.2 μM), the enzyme reaction was started by addition of SF9 affinity purified rat FPT. After incubation at 30° C. for 30 minutes, the reaction was terminated by diluting the mixture 2.5-fold with a stop buffer containing 1.5 M magnesium acetate, 0.2 M H3PO4, 0.5% BSA (bovine serum albumin), and strepavidin beads (Amersham) at a concentration of 1.3 mg/mL. After allowing the plate to settle for 30 minutes at room temperature, radioactivity was quantitated on a microBeta counter (Model 1450, Wallec). The assay was also carried out without 5 mM potassium phosphate.

Experiment [2] has as its system EJ-1 human bladder carcinoma, HT18O human fibrosarcoma, and human colon carcinoma xenografts. The conditions noted are these: 100 mg/kg; xenografts in nude mice; cited from earlier work.
For experiment [3], the system named is human lung carcinoma with K-ras mutation and p53 deletion. As to conditions: nude mice; cited from earlier work.
For experiment [4], the system named is mammary and salivary carcinomas. The conditions noted are these: daily administration; ras transgenic mice; cited from earlier work.
The mark [5] stands for this setting: HEPES buffer pH 7.4 with 5 mM potassium phosphate, read-out: IC50 (μm) Hepes ± 5 mM Phosphate.
Where [6] appears, read: HEPES buffer pH 7.4 without 5 mM potassium phosphate, read-out: IC50 (μm) Hepes.

Like-named read-outs stand apart in the source and are kept apart here.

Regarding `CCCc1c(OCCc2cncn2Cc2ccccc2)ccc2c1CCCC2=O` [Compound 2, 6-[2-(3-benzyl-3H-imidazol-4-yl)-ethoxy]-5-propyl-3,4-dihydro-2H-naphthalen-1-one], the results for the IC50 in experiment [1] (setting [5]) and in experiment [1] (setting [6]) were 870 nM and 1390 nM, respectively.

For the molecule `O=C1CCCc2c1ccc(OCCc1cncn1Cc1ccccc1)c2CCc1ccccc1` [Compound 3, 6-[2-(3-benzyl-3H-imidazol-4-yl)-ethoxy]-5-phenethyl-3,4-dihydro-2H-naphthalen-1-one], the IC50 was 52 nM in experiment [1] (setting [5]) and 73 nM in experiment [1] (setting [6]).

Take `N#Cc1ccc(Cn2cncc2CCOc2ccc3c(c2CCc2ccccc2)CCCC3=O)cc1` [Compound 4, 4-{[5-(2-{[5-oxo-1-(2-phenylethyl)-5,6,7,8-tetrahydro-2-naphthalenyl]oxy}ethyl)-1H-imidazol-1-yl]methyl}benzonitrile]: in experiment [1] (setting [6]), the IC50 worked out at 0.3 nM.

Regarding `COc1ccc(Cn2cncc2CCOc2ccc3c(c2)CCCC3=O)cc1C` [Compound 12, 6-{2-[3-(4-methoxy-3-methyl-benzyl)-3H-imidazol-4-yl]-ethoxy}-3,4-dihydro-2H-naphthalen-1-one], the IC50 in experiment [1] (setting [5]) stood at 22 nM; in experiment [1] (setting [6]), 24 nM.

Take `N#Cc1ccc(Cn2cncc2CCOc2ccc3c(c2CS(=O)(=O)c2ccccn2)CCCC3=O)cc1` [Compound 28, 4-({5-[2-({5-oxo-1-[(2-pyridinylsulfonyl)methyl]-5,6,7,8-tetrahydro-2-naphthalenyl}oxy)ethyl]-1H-imidazol-1-yl}methyl)benzonitrile]: the IC50 in experiment [1] (setting [6]) is 0.3 nM.

Take `CC(C)S(=O)(=O)Cc1c(OCCc2cncn2Cc2ccc(C#N)cc2)ccc2c1CCCC2=O` [Compound 29, 4-({5-[2-({1-[(isopropylsulfonyl)methyl]-5-oxo-5,6,7,8-tetrahydro-2-naphthalenyl}oxy)ethyl]-1H-imidazol-1-yl}methyl)benzonitrile]: in experiment [1] (setting [6]), the IC50 was 0.5 nM.

`COC(=O)[C@H](CCSC)NC(=O)[C@H](/C=C\[C@@H](/C=C/[C@@H](N)CS)C(C)C)Cc1ccccc1` [Compound B1086]: the tumor growth inhibition result in experiment [2] is “inhibit tumor growth”.

`CSCC[C@H](NC(=O)c1ccc(NC[C@@H](N)CS)cc1-c1ccccc1)C(=O)O` [FTI276]: in experiment [3], the tumor growth entry is “selectively block tumor growth”.

For the molecule `CC[C@H](C)[C@@H](CO[C@@H](Cc1ccccc1)C(=O)N[C@@H](CCS(C)(=O)=O)C(=O)OC(C)C)NC[C@@H](N)CS` [L-744,832], the tumor regression entry in experiment [4] is recorded as “caused tumor regression”.
